{
  "source": "paper PMC7238120",
  "about": "“Strong and Selective Inhibitory Effects of the Biflavonoid Selamariscina A against CYP2C8 and CYP2C9 Enzyme Activities in Human Liver Microsomes” (Pharmaceutics, 2020)",
  "type_in_all_cases": "in vitro ADME",
  "key": {"other P450 isoforms": {"test_system": "other P450 isoforms", "experiment": "Nine-P450 cocktail inhibition in human liver microsomes, statements on the other P450 isoforms", "conditions": "inhibitor 5 μM; HLMs", "description": "(§1) The inhibitory potential of the five biflavonoids on the metabolism of nine P450 probe substrates was evaluated using previously developed methods with minor modifications. Biflavonoids were dissolved in methanol. The final concentration of methanol in the incubation mixture was 1.0% (v/v). We used these P450 probe substrates: phenacetin for CYP1A2, coumarin for CYP2A6, bupropion for CYP2B6, amodiaquine for CYP2C8, diclofenac for CYP2C9, omeprazole for CYP2C19, dextromethorphan for CYP2D6, chlorzoxazone for CYP2E1 and midazolam for CYP3A (Table 1). The incubation mixtures containing pooled human liver microsomes (HLMs, XTreme 200, XenoTech), P450 probe substrates, and inhibitor (0~20 µM) were pre-incubated at 37 °C for 5 min. The concentration range of the inhibitor varied (0, 0.002, 0.005, 0.02, 0.05, and 0.2 µM for CYP2C8; 0, 0.02, 0.05, 0.2, 0.5, and 2 µM for CYP2C9; 0, 0.5, 2, 5, 10, and 20 µM for other P450 isoforms). After pre-incubation, a reduced nicotinamide adenine dinucleotide phosphate (NADPH) generation system containing 1 unit/ml G6PDH, 1.3 mM β- nicotinamide adenine dinucleotide phosphate (β- NADP^+), 3.3 mM MgCl2, and 3.3 mM G6P was added to initiate a reaction, and further incubated for 10 min at 37 °C. The reaction was stopped by adding 50 μL of ice-cold acetonitrile containing 7 nM trimipramine (internal standard, IS). After centrifugation at 18,000 g (5 min, 4 °C), aliquots of supernatants were analyzed by LC–MS/MS (Shimadzu LCMS 8060 system, Shimadzu, Kyoto, Japan). All microsomal incubations were conducted in triplicate.\n(§2) All metabolites and the IS were separated on a Kinetex XB-C18 column (100 × 2.10 mm, 2.6 μm, 100 Å; Phenomenex, Torrance, CA, USA) and analyzed using a Shimadzu LCMS 8060 triple-quadrupole mass spectrometer coupled with a Nexera X2 ultra high-performance liquid chromatography system (Shimadzu, Kyoto, Japan) equipped with an electrospray ionization interface. The mobile phase consisted of 0.1% formic acid in water (A) and 0.1% formic acid in acetonitrile (B). […] Electrospray ionization was performed in positive-ion mode at 4000 V or in negative-ion mode at −3500 V. The optimum operating conditions were determined as follows: vaporizer temperature, 300 °C; capillary temperature, 350 °C; collision gas (argon) pressure, 1.5 mTorr. Quantitation was conducted in selected reaction monitoring (SRM) modes with the precursor-to-product ion transition for each metabolite (Table 1 and Table 2).\n(§3) We analyzed the data with Shimadzu LabSolution LC–MS software. The IC50 values were calculated by WinNonlin software (Pharsight, Mountain View, CA, USA). […]"}, "[1]": {"test_system": "the other eight P450 enzymes (isoforms other than CYP2C8)", "experiment": "Nine-P450 cocktail inhibition in human liver microsomes, statements on the other P450 isoforms", "conditions": "human, pooled human liver microsomes; isoforms other than CYP2C8; HLMs", "description": "as §1, §2, §3"}, "UGT1A3": {"target": "T1, UGT1A3 (Homo sapiens, UniProt P35503)", "T1 construct": "tissue XenoTech XTreme 200; host or cells: pooled human liver microsomes", "T1 sequence (P35503 29-534)": "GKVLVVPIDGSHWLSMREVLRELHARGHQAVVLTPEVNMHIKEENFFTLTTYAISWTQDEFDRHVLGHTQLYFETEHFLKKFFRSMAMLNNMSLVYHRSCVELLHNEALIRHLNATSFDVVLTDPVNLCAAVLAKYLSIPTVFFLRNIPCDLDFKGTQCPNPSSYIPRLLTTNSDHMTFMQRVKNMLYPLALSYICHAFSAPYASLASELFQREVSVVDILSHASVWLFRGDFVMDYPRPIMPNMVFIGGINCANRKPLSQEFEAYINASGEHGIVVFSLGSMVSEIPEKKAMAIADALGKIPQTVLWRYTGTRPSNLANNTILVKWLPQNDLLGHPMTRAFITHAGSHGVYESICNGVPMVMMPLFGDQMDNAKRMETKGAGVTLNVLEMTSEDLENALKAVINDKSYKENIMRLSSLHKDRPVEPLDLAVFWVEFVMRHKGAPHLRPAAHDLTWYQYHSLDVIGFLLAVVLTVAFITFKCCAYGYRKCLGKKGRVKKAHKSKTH", "experiment": "Inhibition of UGT1A3 (chenodeoxycholic acid glucuronidation) in human liver microsomes", "conditions": "substrate chenodeoxycholic acid; HLMs", "description": "(§4) The ability of selamariscina A to inhibit the metabolism of six UGT enzyme probe substrates was evaluated using previously developed methods with minor modifications. The microsomal incubation was performed by dividing the non-interactive substrate cocktail sets (set A included SN-38 for UGT1A1, CDCA for UGT1A3 and TFP for UGT1A4 while set B included N-SER for UGT1A6, MPA for UGT1A9 and NX for UGT2B7) (Table 2). In brief, HLMs (0.25 mg/mL) were activated by incubation in the presence of alamethicin (25 µg/mL) for 15 min on ice. After the addition of UGT probe substrates and inhibitor (0, 0.5, 2, 5, 20 and 50 μM), the incubation mixtures were pre-incubated at 37 °C for 5 min. […] After centrifugation at 18,000 g (5 min, 4 °C), aliquots of supernatants were analyzed by LC–MS/MS. […]\n(§5) All metabolites and the IS were separated on a Kinetex XB-C18 column (100 × 2.10 mm, 2.6 μm, 100 Å; Phenomenex, Torrance, CA, USA) and analyzed using a Shimadzu LCMS 8060 triple-quadrupole mass spectrometer coupled with a Nexera X2 ultra high-performance liquid chromatography system (Shimadzu, Kyoto, Japan) equipped with an electrospray ionization interface. […] Quantitation was conducted in selected reaction monitoring (SRM) modes with the precursor-to-product ion transition for each metabolite (Table 1 and Table 2).\n(§6) We analyzed the data with Shimadzu LabSolution LC–MS software. […]"}, "UGT1A4": {"target": "T2, UGT1A4 (Homo sapiens, UniProt P22310)", "T2 construct": "tissue XenoTech XTreme 200; host or cells: pooled human liver microsomes", "T2 sequence (P22310 29-534)": "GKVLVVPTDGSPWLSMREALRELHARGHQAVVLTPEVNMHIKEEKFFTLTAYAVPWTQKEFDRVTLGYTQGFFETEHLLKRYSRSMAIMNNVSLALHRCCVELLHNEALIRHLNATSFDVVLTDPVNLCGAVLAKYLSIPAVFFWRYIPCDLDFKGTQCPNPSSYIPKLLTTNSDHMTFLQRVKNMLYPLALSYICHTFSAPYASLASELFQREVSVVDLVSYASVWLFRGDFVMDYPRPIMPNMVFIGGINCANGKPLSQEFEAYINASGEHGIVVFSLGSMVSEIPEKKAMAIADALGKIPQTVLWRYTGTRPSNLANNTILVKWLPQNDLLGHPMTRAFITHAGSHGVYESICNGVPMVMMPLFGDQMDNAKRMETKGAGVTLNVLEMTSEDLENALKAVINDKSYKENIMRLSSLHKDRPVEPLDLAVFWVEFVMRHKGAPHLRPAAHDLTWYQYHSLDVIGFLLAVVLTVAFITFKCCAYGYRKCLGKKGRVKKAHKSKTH", "experiment": "Inhibition of UGT1A4 (trifluoperazine glucuronidation) in human liver microsomes", "conditions": "substrate trifluoperazine; HLMs; average ± standard error", "description": "as §4, §5, §6"}, "[2]": {"test_system": "CYP2C8 and CYP2C9 versus seven other P450s (CYP1A2, 2A6, 2B6, 2C19, 2D6, 2E1, 3A)", "experiment": "Nine-P450 cocktail inhibition in human liver microsomes, statements on the other P450 isoforms", "conditions": "human, pooled human liver microsomes; amodiaquine and diclofenac activities versus seven other P450s", "description": "as §1, §2, §3"}, "[3]": {"test_system": "other P450 isoforms (other than CYP2C8 and CYP2C9)", "experiment": "Nine-P450 cocktail inhibition in human liver microsomes, statements on the other P450 isoforms", "conditions": "human, pooled human liver microsomes; inhibitor 0.5 μM; HLMs; isoforms other than CYP2C8 and CYP2C9; read-out: Inhibition of the other P450 isoform-specific activities", "description": "as §1, §2, §3"}},
  "data": [
    {"smiles": "CC(C)(O)c1ccccc1CC[C@@H](SCC1(CC(=O)O)CC1)c1cccc(/C=C/c2ccc3ccc(Cl)cc3n2)c1", "note": "[montelukast, reference compound]", "values": [
      {"measurement": "Inhibition of the other six P450 isoforms", "setting": "other P450 isoforms", "result": "negligible inhibition"},
      {"measurement": "IC50 at 10 min", "setting": "[1]", "result": "> 9.73", "unit": "µM"}
    ]},
    {"smiles": "O=C1CC(c2cc(-c3c(O)ccc4c(=O)cc(-c5ccc(O)cc5)oc34)c(O)cc2O)Oc2cc(O)cc(O)c21", "note": "(stereo not drawn) [selamariscina A]", "values": [
      {"measurement": "IC50", "setting": "UGT1A3", "result": "> 50", "unit": "µM"},
      {"measurement": "IC50", "setting": "UGT1A4", "result": "7.7 ± 1.9", "unit": "µM"},
      {"measurement": "selectivity ratio at 10 min", "setting": "[2]", "result": "> 50"},
      {"measurement": "inhibition at 10 min, 0.5 µM", "setting": "[3]", "result": "≤ 21.8", "unit": "%"}
    ]}
  ]
}
